Results on four compounds are retold here after ChEMBL document CHEMBL2375302, “Synthesis, antimicrobial, antiquorum-sensing, antitumor and cytotoxic activities of new series of fused [1,3,4]thiadiazoles” (Eur J Med Chem, 2013).

Data set [1] is described as follows: (§1) Toxicity against brine shrimp larvae assessed as mortality after 24 hrs by binocular microscopic analysis. Type of data set: organism-based. As to conditions: artemia salina, in vivo.
For another data set, the system named is Artemia salina. The data set is described as §1. Type of data set: organism-based. As to conditions: in vivo, 24 h.
The nature of data set [2]: Toxicity against brine shrimp larvae assessed as mortality at 10 ug/mL after 24 hrs by binocular microscopic analysis relative to control. It counts as organism-based. As to conditions: artemia salina, in vivo.
Data set [3] is described as follows: Toxicity against brine shrimp larvae assessed as mortality at 100 ug/mL after 24 hrs by binocular microscopic analysis relative to control. Type of data set: organism-based. As to conditions: artemia salina, in vivo.
The nature of data set [4]: Toxicity against brine shrimp larvae assessed as mortality at 500 ug/mL after 24 hrs by binocular microscopic analysis relative to control. It counts as organism-based. As to conditions: artemia salina, in vivo.
A short description of data set [5]: Toxicity against brine shrimp larvae assessed as mortality at 1000 ug/mL after 24 hrs by binocular microscopic analysis relative to control. Type of data set: organism-based. To be noted: artemia salina, in vivo.
Data set [6] concerns Chromobacterium violaceum. Briefly: Antiquorum-sensing activity against Chromobacterium violaceum ATCC 12472 after 48 hrs. It counts as functional.
In the next data set the test system is Aspergillus flavus. The data set is described as follows: Antifungal activity against Aspergillus flavus 3372 at 5 mg/mL after 48 hrs. Type of data set: functional. As to conditions: Aspergillus flavus, 3372, 48 h; read-out: DIZ.
A further data set concerns Aspergillus fumigatus. Briefly: Antifungal activity against Aspergillus fumigatus Af293 at 5 mg/mL after 48 hrs. Type of data set: functional. To be noted: Af293, 48 h, read-out: DIZ.
The subject of another data set is Candida albicans. The data set is described as follows: Antifungal activity against Candida albicans at 5 mg/mL after 48 hrs. Type of data set: functional. To be noted: read-out: DIZ.
The next data set has as its system Staphylococcus aureus. The data set is described as follows: Antibacterial activity against Staphylococcus aureus at 5 mg/mL after 24 hrs. Type of data set: functional. As to conditions: read-out: DIZ.
A further data set deals with Bacillus cereus. The data set is described as follows: Antibacterial activity against Bacillus cereus at 5 mg/mL after 24 hrs. It counts as functional. To be noted: read-out: DIZ.
For a further data set, the system named is Escherichia coli. The data set is described as follows: Antibacterial activity against Escherichia coli at 5 mg/mL after 24 hrs. It counts as functional. To be noted: read-out: DIZ.

≈ marks a conversion by molar mass, not a printed value.

One may read the LC50 as the concentration lethal to half of the exposed cells or organisms. As usually defined, the mortality is the share of the test organisms that died.

Turning to `COc1ccc(C2C(C#N)C(=O)N=C3SC(S(N)(=O)=O)=NN32)cc1OC` (configuration not stated), in [1], the LC50 at 24 h was 598 µg/mL (≈ 1510 µM). Also, in the data set on Artemia salina, the LC90 was found to be 1076.55 µg/mL (≈ 2720 µM). For the same compound, the mortality at 24 h, 10 ug/mL in [2] came out at 36.6%. For the same compound, the mortality at 24 h, 100 ug/mL in [3] was determined as 50%. Moreover, the mortality at 24 h, 500 ug/mL in [4] is 60%. In addition, in data set [5], the mortality at 24 h, 1000 ug/mL worked out at 70%. The “diameter of the inhibition zone (DIZ)” value in data set [6] turned out to be 8 mm. For the same compound, the zone of inhibition at 5000 µg/mL is below 2 mm in the data set with Aspergillus flavus; 8 mm in the data set on Aspergillus fumigatus; 24 mm in the data set with Candida albicans; 10 mm in the data set on Staphylococcus aureus; 9 mm with Bacillus cereus; below 2 mm with Escherichia coli.

Turning to `N#CC1C(=O)N=C2SC(S(N)(=O)=O)=NN2C1c1ccc(Cl)cc1` (configuration not stated), the LC50 at 24 h in data set [1] amounted to 660 µg/mL (≈ 1780 µM). For the same compound, the LC90 in the data set with Artemia salina was determined as 1187.33 µg/mL (≈ 3210 µM). Further, the mortality at 24 h, 10 ug/mL in data set [2] was 23.3%. In addition, the mortality at 24 h, 100 ug/mL in data set [3] was determined as 36.6%. For the same compound, the mortality at 24 h, 500 ug/mL in data set [4] came out at 50%. For the same compound, the mortality at 24 h, 1000 ug/mL in data set [5] stood at 66.6%. Besides, the “diameter of the inhibition zone (DIZ)” value in [6] amounted to 11 mm. For the same compound, the zone of inhibition at 5000 µg/mL was below 2 mm in the data set with Aspergillus flavus; 6 mm in the data set with Aspergillus fumigatus; 8 mm with Candida albicans; below 2 mm in the data set on Staphylococcus aureus; below 2 mm in the data set on Bacillus cereus; below 2 mm with Escherichia coli.

On to `Cc1ccc(/N=N/c2c(N)n3nc(S(N)(=O)=O)sc3nc2=O)cc1`, for which the LC50 at 24 h in data set [1] stood at 392 µg/mL (≈ 1070 µM). Moreover, the LC90 in the data set on Artemia salina came to 706.43 µg/mL (≈ 1930 µM). The mortality at 24 h, 10 ug/mL in [2] stood at 90%. Also, the mortality at 24 h, 100 ug/mL in data set [3] worked out at 96.6%. The mortality at 24 h, 500 ug/mL in data set [4] worked out at 100%. Besides, the mortality at 24 h, 1000 ug/mL in data set [5] worked out at 100%. Moreover, in [6], the “diameter of the inhibition zone (DIZ)” value is given as 12 mm. For the same compound, the zone of inhibition at 5000 µg/mL was 5 mm in the data set with Aspergillus flavus; 6 mm with Aspergillus fumigatus; 12 mm with Candida albicans; 8 mm with Staphylococcus aureus; 3 mm in the data set with Bacillus cereus; 4 mm in the data set on Escherichia coli.

For the compound `COc1ccc2c(c1)CCC1=C2N=C2SC(S(N)(=O)=O)=NN2C1c1ccc(Cl)cc1` (configuration not stated), in [1], the LC50 at 24 h was 438 µg/mL (≈ 951 µM). Further, the LC90 with Artemia salina was determined as 788.78 µg/mL (≈ 1710 µM). For the same compound, the mortality at 24 h, 10 ug/mL in data set [2] worked out at 50%. For the same compound, in [3], the mortality at 24 h, 100 ug/mL is 66.6%. In addition, in data set [4], the mortality at 24 h, 500 ug/mL was 80%. Further, the mortality at 24 h, 1000 ug/mL in [5] is 96.6%. In addition, the “diameter of the inhibition zone (DIZ)” value in data set [6] is on record as below 2 mm. In addition, the zone of inhibition at 5000 µg/mL in the data set with Aspergillus flavus, in the data set with Aspergillus fumigatus, in the data set on Candida albicans, in the data set on Staphylococcus aureus, in the data set with Bacillus cereus and in the data set with Escherichia coli was below 2 mm each time.
